Assay results published in patent publication US20040242693A1, “Optically active mandelic acid and its derivative, and method for crystallization thereof” (priority 2001, published 2004).

Tests used:
Format in all cases: physicochemical
[1] = Measurement of water content (Karl Fischer method); settings: for Water content: dried crystals, Karl Fischer
Method: Measurement of Water Content
Water content was measured by the Karl Fischer method.

[2] = Measurement of filling (packing) density; settings: natural drop into 50 ml measuring cylinder
Method: Measurement of Filling (Packing) Density
10 to 20 g of each of the crystals obtained in the above Examples and Comparative examples was weighed, and it was passed through a funnel with a diameter of 20 mm to naturally drop into a 50 ml measuring cylinder, so that the weight and volume of the crystals were measured and the filling density was calculated.

[3] = Measurement of compression rate; settings: (volume 1−volume 2)/volume 1
Method: Measurement of Compression Rate
An approximately 7-cm^3 chloromandelic acid crystal was passed through a funnel with a diameter of 9 mm, and it was naturally dropped into a 10 ml measuring cylinder from a height of 20 cm, so that the volume of the crystals was measured (volume 1). Thereafter, the crystals in the measuring cylinder were compressed with a glass rod until their volume was not reduced, and the volume after the compression was measured (volume 2). Compression rate was calculated according to the following formula.
Compression rate=(volume 1−volume 2)/volume 1

[4] = Measurement of particle size distribution (sieving); settings: for Particle size distribution 300 to 1,000 μm: sieve fraction 300 to 1,000 μm; for Particle size distribution <300 μm: sieve fraction <300 μm; for Particle size distribution 1,000 μm<: sieve fraction above 1,000 μm
Method: Measurement of Particle Size Distribution
The crystals were shifted using a microtype electromagnetic vibrating shifter (M-2 type, manufactured by Tsutsui Rikagaku Kikai Co., Ltd.), and their weight was measured, so that their particle size distribution was obtained. 20 g of the crystals was placed on a sieve with a mesh of 1,000 μm, and another sieve with a mesh of 300 μm was placed below the above sieve followed by vibration for 10 minutes.

[5] = Adhesiveness (crystals adhering to test tube wall); settings: weight of adhering crystals / weight filled, test tube 16 mm
Method: Chloromandelic acid crystals were naturally dropped in a dry test tube having an inside diameter of 16 mm, so that the height of the crystals became approximately 10 cm. Thereafter, the test tube containing chloromandelic acid crystals was slowly inverted, so that the test tube was completely turned upside down and the crystals were dropped. Thereafter, the weight of the test tube was measured, and the weight of chloromandelic acid crystals adhered to the inner wall of the test tube was obtained. The ratio (%) of the weight of the adhering crystals to the weight of the initially filled chloromandelic acid crystals was defined as an index of adhesiveness.

[6] = Flowability (flow limit diameter through glass funnels); settings: minimum funnel inside diameter without blockage in 5 tests, 15 g crystals
Method: Glass funnels obtained by connecting glass tubes (cylindrical portions) having inside diameters of 4, 5, 6, 8, 9 and 11 mm with the edges of cones with apical angles of 60° were used. The outlet of each funnel (outlet of cylindrical portion) was closed. […] During this process, the funnel should not be shaken, and chloromandelic acid crystals should not be pushed into the funnel by compression. Thereafter, each funnel containing chloromandelic acid crystals was left at rest, the outlet of the cylindrical portion of each funnel was opened, and the crystals were naturally dropped from the outlets. This operation was carried out 5 times, using each of the above described funnels having cylindrical portions with inside diameters of 4, 5, 6, 8, 9 and 11 mm. Flow limit diameter (mm) was defined as a minimum inside diameter capable of naturally dropping the total amount of chloromandelic acid crystals in all of the above 5 tests with no blockage in the funnels. The flow limit diameter was defined as an index of fluidity.

Appearance of crystals = settings: dried crystals
Method: Subsequently, the (R)-2-chloromandelic acid crystals obtained in Examples 1 to 6 and Comparative examples 1 and 2 were measured regarding appearance, water content, filling density, compression rate, and particle size distribution. Each of the above items was measured according to the following methods.

Row | SMILES | Water content [1] [wt %] | Filling density [2] [g/mL] | Compression rate [3] | Particle size distribution 300 to 1,000 μm [4] [weight %] | Particle size distribution <300 μm [4] [weight %] | Particle size distribution 1,000 μm< [4] [weight %] | Adhesion rate [5] [%] | Flow limit diameter [6] [mm] | Appearance (Appearance of crystals) | Water content of crystal wet product ([1]; wet product after filtration and washing, before drying) [% by weight]
1 | O=C(O)[C@H](O)c1ccccc1Cl [Example 1, (R)-2-chloromandelic acid] | 0.046 | 0.65 | 0.03 | 73.5 | 15.5 | 11.0 | 0.057 | 5 | Granular | 
2 | O=C(O)[C@H](O)c1ccccc1Cl [Example 2, (R)-2-chloromandelic acid] | 0.049 | 0.63 | 0.03 | 73.2 | 18.2 | 8.0 | 0.061 | 5 | Granular | 
3 | O=C(O)[C@H](O)c1ccccc1Cl [Example 3, (R)-2-chloromandelic acid] | 0.058 | 0.63 | 0.03 | 71.0 | 16.6 | 12.4 | 0.058 | 5 | Granular | 
4 | O=C(O)[C@H](O)c1ccccc1Cl [Example 4, (R)-2-chloromandelic acid] | 0.062 | 0.68 | 0.03 | 72.2 | 17.3 | 10.5 | 0.110 | 5 | Granular | 10

The remaining lines, values ahead:

Row | Water content [1] [wt %] | Filling density [2] [g/mL] | Compression rate [3] | Particle size distribution 300 to 1,000 μm [4] [weight %] | Particle size distribution <300 μm [4] [weight %] | Particle size distribution 1,000 μm< [4] [weight %] | Adhesion rate [5] [%] | Flow limit diameter [6] [mm] | Appearance (Appearance of crystals) | Water content of crystal wet product ([1]; wet product after filtration and washing, before drying) [% by weight] | SMILES
5 | 0.076 | 0.68 | 0.03 | 73.1 | 18.4 | 8.5 | 0.130 | 5 | Granular |  | O=C(O)[C@H](O)c1ccccc1Cl [Example 5, (R)-2-chloromandelic acid]
6 | 0.080 | 0.64 | 0.03 | 71.3 | 19.0 | 9.7 | 0.140 | 5 | Granular |  | O=C(O)[C@H](O)c1ccccc1Cl [Example 6, (R)-2-chloromandelic acid]
7 | 0.110 | 0.68 | 0.04 | 46.5 | 46.2 | 7.3 | 0.830 | 9 | Fine |  | O=C(O)[C@H](O)c1ccccc1Cl [compound 1, (R)-2-chloromandelic acid, reference compound]
8 | 0.005 | 0.29 | 0.62 | 71.3 | 24.6 | 4.1 | 0.500 | 11 | Scale |  | O=C(O)[C@H](O)c1ccccc1Cl [compound 2, (R)-2-chloromandelic acid, reference compound]
